In paper PMC11012799 (Molecules, 2024):
Values after ≈ are worked out from the molar mass of the structure shown. Structures can show the parent of a compound that is named as a salt. Where two headings read alike, the source gives them in different places.

Assays:
[1] = system: HeLa cells; experiment: cells; assay type: cell-based, human; settings: for IC50: read-out: IC50 (µM) HeLa; for selectivity index (SI) HeLa: efficacy against HeLa versus normal fibroblasts L929, SI > 1.0 = greater efficacy against cancer cells
Protocol: (§1) Considering our previous research and the literature reports on the antitumor activity of aziridine derivatives, aziridine phosphines (1–4) and aziridine phosphine oxides (5–9) were tested to investigate their potential anticancer activity. The in vitro effects on cell viability were assessed using the 3-(4,5-dimethylthiazol-2-yl)-2,5-diphenyltetrazolium bromide (MTT) assay on non-tumorigenic murine fibroblasts (L929) as well as two cancer cell lines: human cervical epithelioid carcinoma (HeLa) cells and endometrial adenocarcinoma (Ishikawa) cells.
(§2) Cell viability inhibition: The in vitro effects on cell viability were determined using the 3-(4,5-dimethylthiazol-2-yl)-2,5-diphenyltetrazolium bromide (MTT) assay on non-tumorigenic murine fibroblasts L929 (ATTC®—CCL-1) as well as two cancer cell lines: human cervical epithelioid carcinoma HeLa cells (ATTC®—CCL-2™) and endometrial adenocarcinoma Ishikawa cells (ECACC 99040201). Cells were cultured on 96-well microplates at a density of 1 × 10^4 cells/well following the international in Dulbecco’s Modified Eagle’s Medium (DMEM, Biowest) supplemented with 10% fetal bovine serum (FBS, Biowest, Nuaillé, France), 100 U/mL of penicillin, and 100 μg/mL of streptomycin (Biowest, Nuaillé, France). After overnight incubation at 37 °C and 5% CO2, the growth medium was removed and 100 μL of fresh media with two-fold dilutions of the tested compounds at concentrations of 3.125–100 μM were added. […] Untreated cells in medium were used as a positive control, while a clear culture medium served as a negative control.

[2] = system: Ishikawa cells; experiment: cells; assay type: cell-based, human; settings: for IC50: read-out: IC50 (µM) Ishikawa; for selectivity index (SI) Ishikawa: efficacy against Ishikawa versus normal fibroblasts L929, SI > 1.0 = greater efficacy against cancer cells
Protocol: as §1, §2

[3] = system: L929 cells; experiment: cells; assay type: cell-based, murine; settings: read-out: IC50 (µM) L929
Protocol: as §1, §2

[4] = system: Pseudomonas aeruginosa NCTC 6749; experiment: MIC, two-fold microdilution (EUCAST), P. aeruginosa reference strain; assay type: cell-based; settings: read-out: MIC (µM) Pseudomonas aeruginosa NCTC 6749
Excerpt: (§3) A panel of reference bacteria, including Escherichia coli NCTC 8196, Staphylococcus aureus ATCC 6538, Klebsiella pneumoniae ATCC 13883, and Pseudomonas aeruginosa NCTC 6749, was used to assess the antibacterial activity of the nine tested aziridine phosphines (1–4) and aziridine phosphine oxides (5–9). The two-fold microdilution method, following EUCAST guidelines, was used to determine a minimal inhibitory concentration (MIC) of each compound, as presented in Table S1.
(§4) Antibacterial activity: The in vitro antibacterial activity of nine tested aziridine phosphines (1–4) and aziridine phosphine oxides (5–9) was evaluated against reference bacterial strains (E. coli NCTC 8196, S. aureus ATCC 6538, K. pneumoniae ATCC 13883, P. aeruginosa NCTC 6749) and 12 S. aureus clinical isolates, including two methicillin-resistant isolates (MRSA, D15 and D17) obtained from infected patients hospitalized at the Oncological Hospital in Lodz (Poland). All strains were kept frozen at −80 °C in Tryptic Soy Broth with 15% glycerol. The minimal inhibitory concentration (MIC) is defined as the lowest concentration of the compound that prevents visible growth of bacteria using the microdilution method followed the EUCAST guidelines. Each compound was added to 96-well microplates in two-fold dilutions at concentrations from 3.125 to 100 μM in Mueller–Hinton broth. […] Bacterial culture was added into wells at a density of 5 × 10^5 CFU mL^−1, and plates were incubated at 37 °C for 18 h. As a positive control, an untreated bacterial culture was used, and a clear culture medium served as a negative control. The optical density at OD600 was measured using the SpectraMax i3 Multi-Mode Platform (Molecular Devices, San Jose, CA, USA). Ciprofloxacin hydrochloride (CIP, Sigma-Aldrich, Darmstadt, Germany) was used as a reference antimicrobial drug.

[5] = system: Escherichia coli NCTC 8196; experiment: MIC, two-fold microdilution (EUCAST), E. coli reference strain; assay type: cell-based; settings: read-out: MIC (µM) Escherichia coli NCTC 8196
Excerpt: as §3, §4

[6] = system: Staphylococcus aureus ATCC 6538; experiment: MIC, two-fold microdilution (EUCAST), S. aureus reference strain; assay type: cell-based; settings: read-out: MIC (µM) Staphylococcus aureus ATCC 6538
Excerpt: as §3, §4

[7] = system: clinical S. aureus strains; experiment: MIC, microdilution, 12 clinical S. aureus strains; assay type: cell-based, Staphylococcus aureus; settings: panel of 12 clinical isolates (naso-pharynx, ulcers/furuncles, bones), highest tested concentration 100 µM
Excerpt: as §3, §4

[8] = system: Klebsiella pneumoniae ATCC 13883; experiment: MIC, two-fold microdilution (EUCAST), K. pneumoniae reference strain; assay type: cell-based; settings: read-out: MIC (µM) Klebsiella pneumoniae ATCC 13883
Excerpt: as §3, §4

[9] = MTT, 24 h treatment, IC50 ± SD, three independent experiments
[10] = Pseudomonas aeruginosa, NCTC6749, 18 h
[11] = Escherichia coli, NCTC8196, 18 h
[12] = Staphylococcus aureus, ATCC6538, 18 h
[13] = Klebsiella pneumoniae, ATCC13883, 18 h
[14] = tested range 3.125–100 µM, 37 °C, 18 h

For `N.N.[Cl][Pt][Cl]` [CisPt, cisplatin, reference compound], which IC50 [1, 9] is on record?
Its IC50 is 10.4 ± 4.4 µM.

And the IC50 [2, 9]?
The IC50 was 17.3 ± 5.2 µM.

What about the IC50 [3, 9] of the same molecule?
The IC50 was 26.2 ± 7.5 µM.

How did the IC50 ([1]; Homo sapiens, 24 h) turn out when `CC(C)[C@H]1CN1c1ccccc1P(=O)(c1ccccc1)c1ccccc1` [Compound 6] was run?
The IC50 was 40.7 ± 11.1 µM.

What about the “selectivity index (SI) HeLa” value [1] of the same molecule?
The value was < 1.

What about the IC50 ([2]; Homo sapiens, Ishikawa, 24 h) of the same molecule?
Its IC50 is 16.6 ± 2.5 µM.

What about the “selectivity index (SI) Ishikawa” value [2] of the same molecule?
Its value is < 1.

And the MIC [4, 10]?
The MIC was > 100 µM.

And the IC50 ([3]; Mus musculus, L929, 24 h)?
The IC50 was 13.7 ± 3.1 µM.

And the MIC [5, 11]?
Its MIC is > 100 µM.

And the MIC [6, 12]?
Its MIC is 50 µM (≈ 18.1 µg/mL).

What about the MIC ([7]; Staphylococcus aureus) of the same molecule?
The MIC was 100 µM (≈ 36.1 µg/mL).

What about the MIC [7] of the same molecule?
Its MIC is 100 µM (≈ 36.1 µg/mL).

What about the MIC [8, 13] of the same molecule?
Its MIC is > 100 µM.

Which results are given for `CC(C)C[C@H]1CN1c1ccccc1P(c1ccccc1)c1ccccc1` [Compound 3]?
IC50 ([1]; Homo sapiens, 24 h): 30.3 ± 4.5 µM; selectivity index (SI) HeLa [1]: > 3.3; IC50 ([2]; Homo sapiens, Ishikawa, 24 h): > 100 µM; MIC [4, 10]: > 100 µM; IC50 ([3]; Mus musculus, L929, 24 h): > 100 µM; MIC [5, 11]: > 100 µM; MIC [6, 12]: 50 µM (≈ 18 µg/mL); MIC [8, 13]: > 100 µM

Which IC50 ([1]; Homo sapiens, 24 h) does the source give for `c1ccc([C@H]2CN2c2ccccc2P(c2ccccc2)c2ccccc2)cc1` [Compound 4] here?
The IC50 was 39.2 ± 6.7 µM.

What about the “selectivity index (SI) HeLa” value [1] of the same molecule?
The value was < 1.

And the IC50 ([2]; Homo sapiens, Ishikawa, 24 h)?
Its IC50 is > 100 µM.

What about the “selectivity index (SI) Ishikawa” value [2] of the same molecule?
The value was < 1.

What about the MIC [4, 10] of the same molecule?
Its MIC is > 100 µM.

And the IC50 ([3]; Mus musculus, L929, 24 h)?
The IC50 was 22 ± 3.4 µM.

And the MIC [5, 11]?
Its MIC is > 100 µM.

And the MIC [6, 12]?
The MIC was 50 µM (≈ 19 µg/mL).

And the MIC [8, 13]?
Its MIC is > 100 µM.

Which IC50 [1, 9] does the source give for “(2S)-2-diphenylphosphinoyl-2-phenylaziridine [Compound 9]” here?
Its IC50 is 48.8 ± 12.3 µM.

And the IC50 [2, 9]?
The IC50 was > 100 µM.

And the MIC [4, 14]?
Its MIC is > 100 µM.

And the IC50 [3, 9]?
Its IC50 is > 100 µM.

And the MIC [5, 14]?
Its MIC is > 100 µM.

What about the MIC [6, 14] of the same molecule?
The MIC was 50 µM.

What about the MIC [8, 14] of the same molecule?
Its MIC is > 100 µM.

`O=P(c1ccccc1)(c1ccccc1)c1ccccc1N1C[C@@H]1c1ccccc1` [Compound 8] was tested. Which IC50 ([1]; Homo sapiens, 24 h) did it give?
Its IC50 is 19.6 ± 3.2 µM.

And the “selectivity index (SI) HeLa” value [1]?
The value was < 1.

What about the IC50 ([2]; Homo sapiens, Ishikawa, 24 h) of the same molecule?
Its IC50 is 23.4 ± 7.6 µM.

And the “selectivity index (SI) Ishikawa” value [2]?
Its value is < 1.

What about the MIC [4, 10] of the same molecule?
The MIC was > 100 µM.

What about the IC50 ([3]; Mus musculus, L929, 24 h) of the same molecule?
The IC50 was 17 ± 4.4 µM.

What about the MIC [5, 11] of the same molecule?
The MIC was > 100 µM.

And the MIC [6, 12]?
The MIC was 50 µM (≈ 19.8 µg/mL).

What about the MIC [8, 13] of the same molecule?
The MIC was > 100 µM.

Which IC50 ([1]; Homo sapiens, 24 h) does the source give for `CC(C)[C@H]1CN1c1ccccc1P(c1ccccc1)c1ccccc1` [Compound 2] here?
Its IC50 is > 100 µM.

What about the IC50 ([2]; Homo sapiens, Ishikawa, 24 h) of the same molecule?
The IC50 was 14.8 ± 6.5 µM.

What about the “selectivity index (SI) Ishikawa” value [2] of the same molecule?
The value was > 6.7.

What about the MIC [4, 10] of the same molecule?
Its MIC is > 100 µM.

What about the IC50 ([3]; Mus musculus, L929, 24 h) of the same molecule?
The IC50 was > 100 µM.

And the MIC [5, 11]?
The MIC was > 100 µM.

And the MIC [6, 12]?
The MIC was 50 µM (≈ 17.3 µg/mL).

And the MIC [8, 13]?
Its MIC is > 100 µM.

How did the MIC ([4]; Pseudomonas aeruginosa, NCTC6749, tested range 3.125–100 µM, 37 °C, 18 h) turn out when `O=C(O)c1cn(C2CC2)c2cc(N3CCNCC3)c(F)cc2c1=O` [CIP, Ciprofloxacin hydrochloride, reference compound] was run?
The MIC was 2.5 µM.

What about the MIC ([5]; Escherichia coli, NCTC8196, tested range 3.125–100 µM, 37 °C, 18 h) of the same molecule?
The MIC was 0.04 µM.

What about the MIC ([6]; Staphylococcus aureus, ATCC6538, tested range 3.125–100 µM, 37 °C, 18 h) of the same molecule?
The MIC was 1.6 µM.

What about the MIC ([8]; Klebsiella pneumoniae, ATCC13883, tested range 3.125–100 µM, 37 °C, 18 h) of the same molecule?
The MIC was 0.2 µM.

What does the source list for `CC(C)[C@@H]1CN1c1ccccc1P(c1ccccc1)c1ccccc1` [Compound 1]?
IC50 ([1]; Homo sapiens, 24 h): > 100 µM; selectivity index (SI) HeLa [1]: < 1; IC50 ([2]; Homo sapiens, Ishikawa, 24 h): 13.9 ± 7.1 µM; selectivity index (SI) Ishikawa [2]: 4.9; MIC [4, 10]: > 100 µM; IC50 ([3]; Mus musculus, L929, 24 h): 68.1 ± 11.2 µM; MIC [5, 11]: > 100 µM; MIC [6, 12]: 50 µM (≈ 17.3 µg/mL); MIC [8, 13]: > 100 µM
